# In a melting point compilation (Tetko et al.; mined from patent text by program, amines drawn as free bases though some values may be those of a salt):
row,melting point,SMILES
1,240 to 242 °C,O=C(Nc1ccc(C(=O)N2CCc3nc(-c4ccccn4)[nH]c3-c3ccccc32)cc1)c1ccccc1-c1ccccc1
2,99 to 101 °C,N#CCCCCCC#Cc1nc(N)c2ncn(C3OC(CO)C(O)C3O)c2n1 (stereo unspecified)
3,59 to 61 °C,CCOC(=O)c1ccc(/C=C(\C)C=O)c(OC)c1
4,148 to 150 °C,CCN1C=C(C(=O)O)C(=O)CC1c1ccccc1 (stereo unspecified)
5,119 to 120 °C,CCCN(CCC)C(=O)C(CO)Nc1nc(-c2ccccc2)nc2c1CCCC2 (stereo unspecified)
6,148 to 149 °C,CC(=O)Nc1scc(C)c1C(=O)c1ccccc1Cl
7,153 °C,CC(C)(C)NCC(O)COc1ccc2c(=O)cc(-c3cc(O)cc(O)c3)oc2c1 (stereo unspecified)
8,122 to 125 °C,COC(=O)c1ccc(C(=O)c2ccc(CCl)cc2)cc1
9,172 to 174 °C,O=Cc1ccc(OCc2ccsc2)cc1OC(C(=O)O)c1ccccc1 (racemic)
10,128 to 138 °C,O=C(Nc1cccc(C(F)(F)F)c1)c1cccnc1NCCc1ccncc1
11,142 to 143 °C,COc1c(C)c(C)c(OC)c(C(CCCC(=O)O)c2ccccc2)c1C (stereo unspecified)
12,206 to 208 °C,COC(=O)c1cc(NC(=O)Nc2ccccc2)ccn1
13,154 to 157 °C,N#Cc1c(Br)c(Br)n(C(=O)c2ccc(Cl)cc2)c1Br
14,132 to 133 °C,CCOc1cc2c(cc1OC(C)=O)CCC1C2CCC2(C)C(OC(C)=O)CCC12 (stereo unspecified)
15,117 to 118 °C,COCCNC(=O)c1ccc(SC)c([N+](=O)[O-])c1
16,96 to 98 °C,CC1CCCCN1C(=O)C1Cc2ccccc2N1c1ccc(=O)n(C)n1 (stereo unspecified)
17,303 to 308 °C,O=C(Nc1ccc(-c2c[nH]c(=O)cn2)cc1)c1ccncc1
18,124 to 125 °C,Cn1cc(CC(=O)O)c(OCc2cc(OCc3ccc4ccccc4n3)no2)n1
19,132 to 135 °C,CCCCC(=O)Nc1ccn(C2OC(CO)C(O)C2O)c(=O)n1 (stereo unspecified)
20,118 to 120 °C,CCc1cc(-c2nc3ccccc3s2)ccc1N
21,148 °C,COc1cc(OC)cc(-c2nc[nH]c2-c2ccc(OC)c(O)c2N)c1
22,196 to 197 °C,NC(=O)c1cccc(O)c1F
23,190 to 192 °C,CCc1cc(O)c2cccc(OC)c2n1

row,melting point,SMILES
1,162 to 164 °C,Fc1ccc(-c2[nH]cc(CCCN3CCNCC3)c2-c2ccncc2)cc1
2,106 to 107 °C,COc1ccc(-n2nc(C(C)C)cc2-c2ccc(OCCNC(N)=O)cc2)cn1
3,> 300 °C,N#Cc1cn(N(CO)c2c(Cl)cc(Cl)cc2Cl)c(=O)[nH]c1=O
4,98 to 102 °C,CC(C)(C)OC(=O)NCCCN1CCC(CCCCNC(N)=NC(=O)c2nc(Cl)c(N)nc2N)CC1
5,127 °C,COc1ccc(C=CC(=O)c2c(OC)cc(OC)cc2OC(=O)OCc2ccccc2)cc1
6,158 to 160 °C,CC(=O)NCCNc1cccc(-c2cc(-c3ccc(F)cc3O)nc(NC(=O)c3ccco3)c2C#N)c1
7,98 to 99 °C,CC(C)(C)CCC(=S)SC(C)(C)C
8,94 to 98 °C,NS(=O)(=O)CCC(O)COCc1ccccc1 (stereo unspecified)
9,82 to 87 °C,NC(=O)C(F)(F)C(F)(F)C(=O)C(F)(F)F
10,242 to 243 °C,CCCCCCCCCC(=O)Nc1ccc(S(=O)(=O)Nc2nnc(S(N)(=O)=O)s2)cc1
11,65 to 67 °C,CCCCc1c(C)cc(C)cc1O
12,108 to 109 °C,Cc1ncoc1C(C)(O)c1ccccc1C(F)(F)F (stereo unspecified)
13,70 °C,CC(C)(C)OC(=O)CNc1ccccc1F
14,197 to 198 °C,O=C(NCc1ccccc1)c1cccc(-c2nc(=O)c3ccccc3s2)n1
15,129 °C,CN1CCC(N(Cc2cccn2C)S(=O)(=O)c2ccc(Nc3nccc(Nc4ccc(F)cc4)n3)cc2)CC1
16,223 to 224 °C,O=C(c1ccccc1)c1[nH]c2cc(Cl)ccc2c1CC(=O)N1CCCCC1
17,132 to 134 °C,Nc1cc(Cl)cc2c(Cl)ccnc12
18,204 to 205 °C,O=C1C(C2=NCCS2)c2ccccc2N1C1=NCCS1 (stereo unspecified)
19,37 to 39 °C,C#CCNC1CCc2ccc([N+](=O)[O-])cc21 (stereo unspecified)
20,133 to 135 °C,CC(C)CN1CN(C)CN(c2c(Cl)cccc2Cl)C1=S
21,172 to 173 °C,CCC(CC)N(O)C(=O)Nc1ccc(Cc2ccc(NC(=O)N(O)C(CC)CC)c(Cl)c2)cc1Cl
22,99 to 100 °C,CC(=O)N1C(SCc2ccccc2N(C)C)=NC(=O)C1(C)C
23,172 °C,CCN(CC)C(=O)c1ccc(Cl)c(C2(C)C(=O)N(Cc3ccc(OC)cc3OC)c3ccccc32)c1 (stereo unspecified)

row,melting point,SMILES
1,126 °C,CN(C)C(=O)c1ccc(F)c2c1CC(N(CCCc1c[nH]c3ccc(F)cc13)C1CCC1)CO2 (stereo unspecified)
2,130 °C,C[C@]12C[C@H](c3ccc(OCCCCCS(=O)(=O)CCCc4c(F)c(F)c(F)c(F)c4F)cc3)[C@@H]3c4ccc(O)cc4CC[C@H]3[C@@H]1CC[C@@H]2O
3,142 to 144 °C,CCCCc1ncc(/C=C(\Cc2ccsc2)c2nnn[nH]2)n1Cc1ccccc1Cl
4,134 to 136 °C,Cc1cc(Cn2cc(C(F)(F)C(F)(F)F)c(C(F)(F)C(F)(F)F)n2)ccc1NC(=O)c1cccc(Br)c1C(=O)N[C@@H](C)CS(C)(=O)=O
5,150 to 153 °C,CC(C)(S)CNC(=O)c1ccccc1-c1ccccc1C(=O)O
6,201 °C,CCCCCCCCCN1C(=O)c2ccc3c4cccc5cccc(c6ccc(c2c36)C1=O)c54
7,201 to 202 °C,Cc1cc(C)n(-c2nc(-c3ccc(Cl)cc3)c(CCC(=O)O)o2)n1
8,163 to 167 °C,COC1=Cc2ccccc2C(=CC(=O)O)c2ccsc21
9,70 °C,O=Cc1ccc(-c2ccc(C(F)(F)F)cc2)cc1
10,197 to 198 °C,CN1C(=O)C2CC(c3ccc(N)cc3)(C2)C1=O
11,116 to 117 °C,Clc1ccc(CO[C@H]2CO[C@@H](c3ccccc3)OC2)cc1
12,200 to 202 °C,c1ccc(N(c2ccccc2)c2ccc(N(c3ccccc3)c3ccccc3)cc2)cc1
13,175 to 179 °C,CN(C)CC1=Cc2ccc(C(=O)Nc3ccc(Br)cc3)cc2CC1
14,124 to 127 °C,CS(=O)(=O)OCC(C#N)(c1ccc(Cl)cc1)c1ccccc1Cl (stereo unspecified)
15,146 to 148 °C,O=C1O[C@@H](COc2cnsn2)CN1c1ccc(C2=CCOCC2)c(F)c1
16,113 to 115 °C,CC(COc1cccc2oc(C#N)cc(=O)c12)OC=O (stereo unspecified)
17,102 to 103 °C,CC1=C(C)C(F)N(c2ccc(Cl)c(Cl)c2)C1=O (stereo unspecified)
18,145 °C,O=C(NCCc1ccccc1)c1ccccc1-c1ccccc1CNS(=O)(=O)c1cccc(C(F)(F)F)c1
19,102 to 104 °C,O=C(O)CCCCCCC1C(=O)CC(=O)C1=O (stereo unspecified)
20,117 to 118 °C,CS(=O)c1cccc(-c2ncn(CCCN3CCOCC3)c2-c2ccncc2)c1 (stereo unspecified)
21,129 to 137 °C,CCN(CC)OCc1cc(C(C)(C)C)c(O)c(C(C)(C)C)c1
22,100 to 102 °C,CN(C)S(=O)(=O)c1cccc(OC(F)F)c1C#N

row,SMILES,melting point
1,CSc1nc(C)c(CCN2CC=C(c3c[nH]c4ccccc34)CC2)c(=O)n1C,245 to 246 °C
2,Cc1cccc(NC(=O)NC2N=C(c3ccccc3F)c3ccccc3N(Cc3ncccc3C(=O)N3CCCC3)C2=O)c1 (racemic),153 to 155 °C
3,C=CC1(O)CCC2C3CCC4=CC(=O)CCC4C3CCC21CC (stereo unspecified),108 to 111 °C
